Experiment [1] addresses GABAA/α1 receptors (Homo sapiens, UniProt P14867+P18507). The conditions noted are these: Huang et al. 2000; cited from earlier work.
The test system of experiment [2] is alcohol preferring rats (P) and high alcohol drinking rats (HAD). The conditions noted are these: cited from earlier work.
For experiment [3], the target named is T1, α2β3γ2 benzodiazepine receptor GABA(A) isoform (UniProt P18507+P47869).
T1 sequence (P18507 1-475): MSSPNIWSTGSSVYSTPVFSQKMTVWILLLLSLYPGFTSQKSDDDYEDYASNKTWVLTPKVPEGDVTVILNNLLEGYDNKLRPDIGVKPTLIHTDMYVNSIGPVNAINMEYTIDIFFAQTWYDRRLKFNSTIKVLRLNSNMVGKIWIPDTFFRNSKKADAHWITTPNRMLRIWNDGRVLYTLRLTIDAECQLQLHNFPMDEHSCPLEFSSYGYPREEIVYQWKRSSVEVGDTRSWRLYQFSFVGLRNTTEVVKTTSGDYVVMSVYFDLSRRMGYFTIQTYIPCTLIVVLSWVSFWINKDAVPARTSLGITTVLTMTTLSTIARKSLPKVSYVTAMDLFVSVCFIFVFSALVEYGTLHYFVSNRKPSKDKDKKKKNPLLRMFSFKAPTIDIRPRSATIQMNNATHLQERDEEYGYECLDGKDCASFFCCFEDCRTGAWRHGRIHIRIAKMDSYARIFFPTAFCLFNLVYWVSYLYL
T1 sequence (P47869 1-451): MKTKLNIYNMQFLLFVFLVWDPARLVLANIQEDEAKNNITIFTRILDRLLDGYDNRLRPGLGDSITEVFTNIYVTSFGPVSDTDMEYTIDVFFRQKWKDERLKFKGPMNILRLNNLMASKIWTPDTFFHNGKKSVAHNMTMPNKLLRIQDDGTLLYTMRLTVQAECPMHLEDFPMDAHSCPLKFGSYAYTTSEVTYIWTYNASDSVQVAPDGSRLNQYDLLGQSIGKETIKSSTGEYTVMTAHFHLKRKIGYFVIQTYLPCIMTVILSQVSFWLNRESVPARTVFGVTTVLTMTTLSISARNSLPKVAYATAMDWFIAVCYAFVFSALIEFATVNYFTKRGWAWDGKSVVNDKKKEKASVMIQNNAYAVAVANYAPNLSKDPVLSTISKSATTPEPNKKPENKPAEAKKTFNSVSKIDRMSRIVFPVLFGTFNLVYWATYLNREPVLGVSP
Description: Radioligand competition binding, α2β3γ2 BzR/GABA(A) isoform. The conditions noted are these: means of two determinations, read-out: Ki α2. Set-up: species or system human and rat. As for the experimental part: (§1) The affinity of all ligands at the 6 major recombinant GABAA/BzR subtypes was measured by competition for [^3H]Ro15-1788 binding to HEK-T cells expressing both human and rat GABAA/Bz receptors of composition α1β2γ2 (α1), α2β2γ2 (α2), α3β2γ2 (α3), α4β2γ2 (α4), α5β2γ2 (α5) and α6β2γ2 (α6). It is well known that the β2 and β3 subunits can be interchanged with no effect on Bz ligand affinity or efficacy. […] These studies are similar to those performed in the laboratory of Bryan Roth who has already expressed the receptors employing the work of Kucken et. al. and Gray et. al.
(§2) In brief, for membrane preparations, the cells were scraped on to the ice and diluted into 5 mL of phosphate buffered saline (pH=7.40) and cells pelleted by centrifugation for 5 min. at 4° C. The pellet was resuspended in 1 mL of 50 mM Tris-acetate buffer (pH 7.4) and centrifuged at 18,000 g for 20 min. […] Each pellet were diluted to 6 mL and then 100 μL of membranes were incubated with approximately 1 nM final concentration of [^3H]Ro 15-1788 in a total volume of 250 μL together with serial dilutions of test compound for 90 min. on ice. The membranes were harvested in polyethyleneimine-pretreated Whatman GF/C filters and after drying and addition of scintillation cocktail, counted in a scintillation counter. The cpm retained on the filters was plotted against log concentration (M) and fitted to one site competition equation to obtain the Ki using Graphpad Prizm (V4.0) using the Cheng-Prusoff approximation.
On the technique in general: Loss of bound radioactivity is the signal in a displacement assay; it reports binding, not function.

Experiment [4] deals with T2, α3β3γ2 benzodiazepine receptor GABA(A) isoform (UniProt P18507+P34903).
T2 sequence (P18507 1-475): T1 sequence (P18507 1-475)
T2 sequence (P34903 1-492): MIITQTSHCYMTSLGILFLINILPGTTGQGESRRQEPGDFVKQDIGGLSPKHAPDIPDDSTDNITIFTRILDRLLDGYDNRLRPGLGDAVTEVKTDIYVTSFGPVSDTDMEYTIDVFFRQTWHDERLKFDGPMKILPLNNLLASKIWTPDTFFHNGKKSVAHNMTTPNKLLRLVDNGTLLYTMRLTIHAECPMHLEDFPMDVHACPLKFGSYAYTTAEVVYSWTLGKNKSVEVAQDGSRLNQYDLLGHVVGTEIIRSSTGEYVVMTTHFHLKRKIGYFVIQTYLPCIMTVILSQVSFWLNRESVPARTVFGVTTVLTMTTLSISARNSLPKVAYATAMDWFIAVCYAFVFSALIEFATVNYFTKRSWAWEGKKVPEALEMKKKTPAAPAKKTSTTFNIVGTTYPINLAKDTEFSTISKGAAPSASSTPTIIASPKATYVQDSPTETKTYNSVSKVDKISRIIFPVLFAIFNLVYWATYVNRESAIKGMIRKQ
In words: Radioligand competition binding, α3β3γ2 BzR/GABA(A) isoform. The arrangement: species or system human and rat. The conditions noted are these: means of two determinations, read-out: Ki α3. As for the experimental part:
as §1, §2

The target of experiment [5] is α6β3γ2 benzodiazepine receptor GABA(A) isoform (UniProt P18507+Q16445). In words: Radioligand competition binding, α6β3γ2 BzR/GABA(A) isoform. The following applies: means of two determinations, read-out: Ki α6. Set-up: species or system human and rat. As for the experimental part:
as §1, §2

The target of experiment [6] is T3, α1β3γ2 benzodiazepine receptor GABA(A) isoform (UniProt P14867+P18507).
T3 sequence (P14867 1-456): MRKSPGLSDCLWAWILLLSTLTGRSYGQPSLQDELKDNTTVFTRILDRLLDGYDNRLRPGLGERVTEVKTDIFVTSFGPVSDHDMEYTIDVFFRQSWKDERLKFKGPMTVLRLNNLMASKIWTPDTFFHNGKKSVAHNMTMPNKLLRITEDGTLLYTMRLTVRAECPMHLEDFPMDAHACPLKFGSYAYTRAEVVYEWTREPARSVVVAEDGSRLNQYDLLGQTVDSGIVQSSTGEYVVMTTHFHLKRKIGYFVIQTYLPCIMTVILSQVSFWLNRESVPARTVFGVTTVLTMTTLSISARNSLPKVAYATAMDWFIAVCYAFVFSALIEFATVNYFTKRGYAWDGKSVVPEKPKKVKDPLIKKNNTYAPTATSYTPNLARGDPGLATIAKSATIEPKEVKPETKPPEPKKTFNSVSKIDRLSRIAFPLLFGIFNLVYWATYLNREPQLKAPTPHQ
T3 sequence (P18507 1-475): T1 sequence (P18507 1-475)
Description: Radioligand competition binding, α1β3γ2 BzR/GABA(A) isoform. Set-up: Ki α1; means of two determinations; Ki α1; α1; species or system human and rat. The following applies: means of two determinations, read-out: Ki α1. As for the experimental part:
as §1, §2

Experiment [7] has as its target T4, α5β3γ2 benzodiazepine receptor GABA(A) isoform (UniProt P18507+P31644).
T4 sequence (P18507 1-475): T1 sequence (P18507 1-475)
T4 sequence (P31644 1-462): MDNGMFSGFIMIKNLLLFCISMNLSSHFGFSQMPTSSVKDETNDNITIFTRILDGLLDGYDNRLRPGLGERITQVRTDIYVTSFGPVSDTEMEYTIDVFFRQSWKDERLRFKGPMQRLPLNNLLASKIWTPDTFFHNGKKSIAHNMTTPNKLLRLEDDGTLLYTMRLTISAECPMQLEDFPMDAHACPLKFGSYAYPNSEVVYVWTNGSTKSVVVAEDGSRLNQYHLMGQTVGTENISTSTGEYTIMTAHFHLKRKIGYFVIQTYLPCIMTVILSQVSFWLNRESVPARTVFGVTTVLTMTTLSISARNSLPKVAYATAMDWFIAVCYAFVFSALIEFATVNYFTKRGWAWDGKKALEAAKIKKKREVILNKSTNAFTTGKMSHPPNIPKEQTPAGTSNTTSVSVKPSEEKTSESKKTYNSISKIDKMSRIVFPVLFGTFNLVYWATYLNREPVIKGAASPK
In words: Radioligand competition binding, α5β3γ2 BzR/GABA(A) isoform. The arrangement: Ki α5; means of two determinations; Ki α5; α5; other: text; species or system human and rat.

Where [8] appears, read: read-out: Ki α5; Table I; means of two determinations.
Setting [9] is: Table 2; means of two determinations; read-out: Ki α5.
Where [10] appears, read: read-out: Ki α5; Table 2; means of two determinations.

Each structure is given as a SMILES string. Like-named read-outs stand apart in the source and are kept apart here.

Chain of GABAA/α1 receptors (P28472 26-473 partner, one chain of several): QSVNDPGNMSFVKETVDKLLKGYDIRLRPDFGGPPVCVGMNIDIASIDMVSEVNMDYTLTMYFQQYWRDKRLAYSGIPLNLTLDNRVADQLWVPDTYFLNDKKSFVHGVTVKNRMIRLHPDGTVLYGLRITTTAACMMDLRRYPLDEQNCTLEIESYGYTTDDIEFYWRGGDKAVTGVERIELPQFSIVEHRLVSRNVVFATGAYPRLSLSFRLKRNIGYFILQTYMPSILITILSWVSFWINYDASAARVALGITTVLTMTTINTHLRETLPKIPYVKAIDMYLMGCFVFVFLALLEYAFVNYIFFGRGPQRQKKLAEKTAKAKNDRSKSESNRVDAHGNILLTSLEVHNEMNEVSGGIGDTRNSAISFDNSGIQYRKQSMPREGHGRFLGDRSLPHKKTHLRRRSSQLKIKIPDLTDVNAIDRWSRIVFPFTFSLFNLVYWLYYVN

For the compound `CC(C)(C)OC(=O)c1cc2c(cn1)[nH]c1ccccc12` [BCCt, β-carboline-3-carboxylate-tbutyl ester], in experiment [1], the “selectivity for α1 over other BzR subtypes” value was 20 fold. Moreover, the “alcohol self administration (in words)” value in experiment [2] (P and HAD rats, June et al. 2003, Foster et al. 2004) was “potently reduced alcohol self administration”. In experiment [2] (P and HAD rats), the “anxiolytic activity (in words)” value is given as “exhibits anxiolytic activity”. For the same compound, the “sedative-hypnotic effects of alcohol (in words)” value in experiment [2] (P rats and HAD rats) is “antagonized the sedative-hypnotic effects of alcohol”.

`CN1Cc2c(CCl)ncn2-c2ccc(Cl)cc2C1=O` [Ligand 12b]: the Ki in experiment [3] (Table I) is above 300 nM; in experiment [4] (Table I), above 300 nM; in experiment [5] (Table I) it was above 300 nM; in experiment [6] (Table I), above 300 nM; in experiment [7] (setting [8]), 28.5 nM.

On to `CCOCc1ncn2c1CN(C)C(=O)c1cc(Cl)ccc1-2` [Ligand 12c], for which the Ki is above 300 nM in experiment [3] (Table I); above 300 nM in experiment [4] (Table I); above 300 nM in experiment [5] (Table I); above 300 nM in experiment [6] (Table I); 82.7 nM in experiment [7] (setting [8]).

As to `C#CC#Cc1ccc2c(c1)C(=O)N1CCC[C@H]1c1c(C(=O)OCC)ncn1-2` [Ligand 14], the Ki in experiment [7] (setting [8]) turned out to be 64 nM.

For the compound `CCOC(=O)c1ncoc1-c1ncn2c1[C@@H]1CCN1C(=O)c1cc(Br)ccc1-2` [RY062], the Ki is above 1000 nM in experiment [3] (Table 2); above 500 nM in experiment [4] (Table 2); above 2000 nM in experiment [5] (Table 2); above 1000 nM in experiment [6] (Table 2); 172 nM in experiment [7] (setting [9]).

`CCOC(=O)c1ncoc1-c1ncn2c1[C@@H]1CCN1C(=O)c1cc(C#C[Si](C)(C)C)ccc1-2` [RY068]: the Ki in experiment [3] (Table 2) is 877 nM; in experiment [4] (Table 2), 496 nM; in experiment [5] (Table 2), above 1000 nM; in experiment [6] (Table 2), above 500 nM; in experiment [7] (setting [10]), 37 nM.

Regarding `C#Cc1ccc2c(c1)C(=O)N1CC[C@H]1c1c(-c3ocnc3C(=O)OCC)ncn1-2` [RY069], the Ki in experiment [3] (Table 2) was 622 nM; in experiment [4] (Table 2) it was 506 nM; in experiment [5] (Table 2) it was above 1000 nM; in experiment [6] (Table 2), 692 nM; in experiment [7] (setting [10]) it was 19 nM.

For the compound `C#Cc1ccc2c(c1)C(=O)N1CC[C@@H]1c1c(-c3nc(C)no3)ncn1-2` [RY-I-29], the Ki in experiment [3] (Table 2), in experiment [3] (Table I), in experiment [4] (Table 2), in experiment [4] (Table I), in experiment [5] (Table 2) and in experiment [5] (Table I) was above 1000 nM each time. In addition, the Ki in experiment [6] (Table 2) was above 1000 nM; in experiment [6] (Table I), above 1000 nM; in experiment [7] (setting [9]) it was 157 nM; in experiment [7] (Table I; means of two determinations; read-out: Ki α5) it was 157 nM.

A word on the Ki: it is the equilibrium dissociation constant of an inhibitor or competing ligand from its target.

Source of the values: patent publication US7595395B2, “Gabaergic agents to treat memory deficits” (priority 2005, dated 2009).
